Assay results taken from PubChem BioAssay (NCI).
Where “and” joins values, the source holds several entries; their conditions need not be identical. Equal entries are not always repeated.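 Where inhibition never reached the appropriate level, the endpoint shown equals the highest concentration tested. Otherwise, values were interpolated linearly from a five-concentration, 48-hour dose response in 96-well plates. At the GI50, growth is halved. TGI denotes the concentration required for complete inhibition of growth.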

Experiments:
Assay in all cases: NCI-60 cell line screen, 48 h
CCRF-CEM leukemia = test system: CCRF-CEM leukemia
DMS 114 small cell lung = test system: DMS 114 small cell lung
786-0 renal = test system: 786-0 renal
HOP-62 NSCLC = test system: HOP-62 NSCLC
TK-10 renal = test system: TK-10 renal
HCT-116 colon = test system: HCT-116 colon
SK-OV-3 ovarian = test system: SK-OV-3 ovarian
HOP-18 NSCLC = test system: HOP-18 NSCLC
MDA-MB-435 = test system: MDA-MB-435
T-47D breast = test system: T-47D breast

| Compound | GI50 (CCRF-CEM leukemia) | TGI (CCRF-CEM leukemia) | GI50 (DMS 114 small cell lung) [µM] | TGI (DMS 114 small cell lung) [µM] | GI50 (786-0 renal) | TGI (786-0 renal) | GI50 (HOP-62 NSCLC) | TGI (HOP-62 NSCLC) | GI50 (TK-10 renal) | TGI (TK-10 renal) | GI50 (HCT-116 colon) | TGI (HCT-116 colon) | GI50 (SK-OV-3 ovarian) | TGI (SK-OV-3 ovarian) | GI50 (HOP-18 NSCLC) [µM] | TGI (HOP-18 NSCLC) [µM] | GI50 (MDA-MB-435) | TGI (MDA-MB-435) | GI50 (T-47D breast) | TGI (T-47D breast) |
| --- | --- | --- | --- | --- | --- | --- | --- | --- | --- | --- | --- | --- | --- | --- | --- | --- | --- | --- | --- | --- |
| COc1cccc(/C=N/[N-]C(=O)c2ccncc2)c1[O-].COc1cccc(/C=N/[N-]C(=O)c2ccncc2)c1[O-].[O]=[U](=[O])([OH2+])[OH2+] | 2060 nM | > 30.7 µM | 3.3 | 12.5 | 4.37 µM | 48.6 µM | 3.71 µM | 24.9 µM | 13100 nM | > 31.6 µM | 4800 nM | > 100 µM | 12.2 µM | 73.2 µM | 12.1 | 88.6 |  |  |  |  |
| N[C@H](CCC(=O)N[C@@H](Cc1c[nH]c2ccccc12)C(=O)O)C(=O)O | > 100000 nM | > 100 µM |  |  | > 100 µM | > 100 µM | > 100 µM | > 100 µM | > 100000 nM | > 100 µM | > 100000 nM | > 100 µM | > 100 µM | > 100 µM |  |  | > 100000 nM | > 100 µM | > 100000 nM | > 100 µM |
| CC(C)c1[nH]nc2c1N=C(c1ccccc1Cl)c1cc([N+](=O)[O-])ccc1N2 | 5340 nM | > 17.8 µM |  |  | 5.74 µM | > 24 µM | 6.58 µM | > 25 µM | 7310 nM | > 23.1 µM | 4350 nM | > 25 µM | 10.1 µM | > 25 µM |  |  | 870 nM | > 25 µM | 8750 nM | > 23 µM |
| N#CCCN1C/C(=C/c2ccc(Br)cc2)C(=O)/C(=C/c2ccc(Br)cc2)C1 | 341 nM | > 100 µM |  |  | 1.38 µM | 2.84 µM | 1.66 µM | 3.57 µM | 2450 nM | 5.44 µM | 181 nM | 0.345 µM | 2.93 µM | 8.1 µM |  |  | 2240 nM | 6.83 µM | 4360 nM | 28.2 µM |
| c1ccc2c(c1)[nH]c1c2cc[n+]2cc3c(cc12)CCCC3 | 2760 nM | 12.7 µM |  |  | 4 µM | 16.4 µM and 12.7 µM | 3.77 µM | 17 µM and 7.86 µM |  | 25.6 µM | 3300 nM | 14.2 µM and 4.66 µM |  | 14.2 µM and 14.4 µM |  |  |  | 6.34 µM and 7.54 µM | 2470 nM | 13.6 µM and 22.4 µM |
| COc1ccc(-c2ccc3c(N4CCOC[C@@H]4C)nc(N4CCOC[C@@H]4C)nc3n2)cc1CO | 10.2 nM and 59 nM | > 100 µM |  |  | 0.00494 µM and 0.0416 µM | > 45.1 µM | 0.00514 µM and 0.028 µM | 1.65 µM and 0.527 µM | 4.84 nM and 14.7 nM | 0.237 µM and 0.212 µM | 8.58 nM and 73.4 nM | > 100 µM | 0.00324 µM and 0.0138 µM | 0.0479 µM and 0.116 µM |  |  | 5.31 nM and 22.7 nM | 0.0557 µM and 0.263 µM | 1.58 nM and < 10 nM | 0.00844 µM and 0.0544 µM |
| O=C(/C(=C\c1c(-c2ccccc2)[nH]c2ccccc12)S(=O)(=O)c1ccccc1)c1ccccc1 | > 100000 nM | > 100 µM |  |  | > 100 µM | > 100 µM | > 100 µM | > 100 µM | > 100000 nM | > 100 µM | 4890 nM | > 100 µM | 7.63 µM | > 100 µM |  |  | 3940 nM | > 100 µM | 3440 nM | > 100 µM |
| Nc1cc2c(cc1Br)[nH]c(=O)c1ccccc12 | 6820 nM | 59.5 µM |  |  | 6.16 µM | > 100 µM | 3.71 µM | 13.3 µM | 4270 nM | 32.7 µM | 2910 nM | 25.5 µM | 10.1 µM | 54.1 µM |  |  | 1910 nM | 3.57 µM | 4220 nM | 55.8 µM |
| CC(C)[C@H](O)C(=O)N[C@@H](C)C(=O)N[C@@H]1C(=O)N(C)CCc2ccccc21 | > 100000 nM | > 100 µM |  |  | > 100 µM | > 100 µM | > 100 µM | > 100 µM | > 100000 nM | > 100 µM | > 100000 nM | > 100 µM | > 100 µM | > 100 µM |  |  | > 100000 nM | > 100 µM | > 100000 nM | > 100 µM |
| CC1=NN(C(=O)CC(=O)Nc2ccccc2F)C(=O)C1N=Nc1ccccc1[N+](=O)[O-] (stereo not given) |  | > 100 µM |  | > 100 |  | > 100 µM |  | > 100 µM |  | > 100 µM |  | > 100 µM |  | > 100 µM |  |  |  |  |  |  |
| COc1ccc(C(CC(=O)c2ccc3c(c2)OCO3)c2c(O)c3ccccc3oc2=O)cc1OC (stereo not given) |  | > 100 µM |  |  |  | > 100 µM |  | > 100 µM |  | > 100 µM |  | > 100 µM |  | > 100 µM |  |  |  | > 100 µM |  | > 100 µM |
| Cc1ccccc1C1=[N+]([O-])c2ccc(Cl)cc2C1=O |  | 12.5 µM |  |  |  | 32.9 µM |  | 42.6 µM |  | 34.5 µM |  | 19.5 µM |  | 52.6 µM |  | 35.4 |  |  |  |  |
| OC(c1cc(-c2ccc(C(F)(F)F)cc2)nc(C(F)(F)F)c1)C1CCCCN1 (stereo not given) | 1620 nM | 3.53 µM and 4.81 µM |  |  | 1.57 µM | 3.16 µM and 3.48 µM | 1.75 µM and 2.13 µM | 3.18 µM and 4.75 µM | 1720 nM and 2160 nM | 3.23 µM and 4.95 µM | 1530 nM | 2.87 µM and 3.47 µM |  | 4.75 µM and 5.99 µM |  |  | 1670 nM | 3.05 µM and 3.42 µM | 1660 nM and 2330 nM | 3.31 µM and 6.2 µM |
| O=C(Nc1cc(Cl)ccc1O)c1ccc(Nc2ccnc(C(F)(F)F)c2)cc1 | 807 nM | 5.7 µM |  |  | 3.61 µM | > 100 µM | 3.23 µM | 23.7 µM | 2000 nM | 7.89 µM | 2900 nM | 60.8 µM | 2.32 µM | 7.11 µM |  |  | 2950 nM | 9.53 µM | 1760 nM | 6.39 µM |
| COc1ccc(-c2nn(-c3cccc(Cl)c3)cc2-c2cc(-c3ccccc3)[nH]c(=O)c2C#N)cc1 | 8380 nM | 19.3 µM |  |  | 1.6 µM | 7.25 µM | 1.17 µM | 2.87 µM | 1470 nM | 4.6 µM | 1710 nM | 32.8 µM | 0.922 µM | 2.29 µM |  |  | > 50000 nM | > 50 µM | 1640 nM | 7.43 µM |
